Test system: Male Swiss Webster mice
Experiment: Hot-plate test (thermal stimulus), licking latency
Type: in vivo
Method: The first experiment was the hot-plate test.
Male Swiss Webster mice weighing between 22 and 30 g were used.
The test was carried out according to O'Callaghan and Holtzman in J. Pharmacol. Exp. Ther. 197: 533-537, 1976.
According to this test, a stainless steel container is to be placed in a bain-marie at a temperature of 52.5° C.
The mouse was removed from the hot plate immediately upon the first sign of painful stimulus. The maximum latency time registered on the hot plate was 45 seconds.
The values of analgesia were determined at 15 minute-intervals.

SMILES: CC(=O)O[C@H](CC(=O)[O-])C[N+](C)(C)C [Acetyl L-carnitine, acetyl L-carnitine]
- Hot plate Licking latency (3 mg/ml in drinking water, after 7 days treatment): 17.8 ± 2.3 s
- Hot plate Licking latency (3 mg/ml in drinking water, after 14 days treatment): 18.8 ± 2.5 s
- Hot plate Licking latency (3 mg/ml in drinking water, before treatment): 13.8 ± 0.8 s
- analgesic effect in hot-plate test (30 mg/kg SC, acute and 30 mg/kg BID SC for 7 days): had no analgesic effect
- antinociceptive effect in hot-plate test (100 mg/kg BID SC for 7 days): statistically significant antinociceptive effect
- antinociceptive effect in hot-plate test (100 mg/kg BID administered for 14 days): the test failed to be statistically significant
- pain threshold in hot-plate test (1-8 hours from one single administration of 100 mg/kg SC): did not affect the pain threshold
- Hot plate Licking latency (7-day sub-chronic treatment SC 30 mg/kg BID, 15 min after treatment): 16.3 ± 2.1 s
- Hot plate Licking latency (7-day sub-chronic treatment SC 30 mg/kg BID, 30 min after treatment): 17.3 ± 1.9 s
- Hot plate Licking latency (7-day sub-chronic treatment SC 30 mg/kg BID, 45 min after treatment): 15.2 ± 1.5 s
- Hot plate Licking latency (7-day sub-chronic treatment SC 30 mg/kg BID, before treatment): 15.8 ± 1.3 s
- Hot plate Licking latency (7-day sub-chronic treatment SC 100 mg/kg BID, 15 min after treatment): 22.1 ± 1.8^ sec
- Hot plate Licking latency (7-day sub-chronic treatment SC 100 mg/kg BID, 30 min after treatment): 22.5 ± 1.9^ sec
- Hot plate Licking latency (7-day sub-chronic treatment SC 100 mg/kg BID, 45 min after treatment): 22.2 ± 1.7^ sec
- Hot plate Licking latency (7-day sub-chronic treatment SC 100 mg/kg BID, before treatment): 21.8 ± 1.1^ sec
- Hot plate Licking latency (14-day sub-chronic treatment SC 100 mg/kg BID, 15 min after treatment): 22.1 ± 2.7 s
- Hot plate Licking latency (14-day sub-chronic treatment SC 100 mg/kg BID, 30 min after treatment): 22.5 ± 2.1 s
- Hot plate Licking latency (14-day sub-chronic treatment SC 100 mg/kg BID, 45 min after treatment): 23.4 ± 2.9 s
- Hot plate Licking latency (14-day sub-chronic treatment SC 100 mg/kg BID, before treatment): 22.4 ± 1.4 s
- Hot plate Licking latency (7 days after the end of the 14-day-treatment 100 mg/kg BID, 15 min after treatment): 21.1 ± 1.9^ sec
- Hot plate Licking latency (7 days after the end of the 14-day-treatment 100 mg/kg BID, 30 min after treatment): 18.5 ± 1.8 s
- Hot plate Licking latency (7 days after the end of the 14-day-treatment 100 mg/kg BID, 45 min after treatment): 19.0 ± 2.3 s
- Hot plate Licking latency (7 days after the end of the 14-day-treatment 100 mg/kg BID, before treatment): 19.2 ± 1.6^ sec
- antinociceptive action in hot-plate test (7 days after the last 14 day-series of injections, 100 mg/kg BID SC): persisted even 7 days after the last 14 day-series of injections
- Hot plate Licking latency (Acute SC treatment 100 mg/kg, 15 min after treatment): 17.3 ± 1.7 s
- Hot plate Licking latency (Acute SC treatment 100 mg/kg, 30 min after treatment): 16.8 ± 1.2 s
- Hot plate Licking latency (Acute SC treatment 100 mg/kg, 45 min after treatment): 15.2 ± 1.7 s
- Hot plate Licking latency (Acute SC treatment 100 mg/kg, before treatment): 13.9 ± 0.7 s
- Hot plate Licking latency (SC acute treatment 30 mg/kg, 15 min after treatment): 15.8 ± 1.8 s
- Hot plate Licking latency (SC acute treatment 30 mg/kg, 30 min after treatment): 16.5 ± 2.0 s
- Hot plate Licking latency (SC acute treatment 30 mg/kg, 45 min after treatment): 15.0 ± 2.1 s
- Hot plate Licking latency (SC acute treatment 30 mg/kg, before treatment): 14.2 ± 0.9 s
- protective effect in hot-plate test (acute SC administration 100 mg/kg): did not exert any protective effect
- Hot plate Licking latency (single SC treatment 100 mg/kg, 1 h after treatment): 15.8 ± 2.2 s
- Hot plate Licking latency (single SC treatment 100 mg/kg, 2 h after treatment): 14.7 ± 1.5 s
- Hot plate Licking latency (single SC treatment 100 mg/kg, 3 h after treatment): 15.6 ± 1.9 s
- Hot plate Licking latency (single SC treatment 100 mg/kg, 4 h after treatment): 14.1 ± 2.0 s
- Hot plate Licking latency (single SC treatment 100 mg/kg, 6 h after treatment): 15.2 ± 1.9 s
